Assay results from publication PMC5540273, “Progress towards a public chemogenomic set for protein kinases and a call for contributions” (PLoS ONE, 2017).

What was measured:
[1] = biological target: AAK1 (Homo sapiens, UniProt Q2M2I8); assay: KINOMEscan competition binding; settings: read-out: %Inh AAK1
[2] = test system: 392 wild-type human kinases; assay: KINOMEscan assay panel, PKIS2 profiling; type: binding; settings: 1 μM
Source text: Since the assay was only run in singlicate it was important to follow up actives with Kd determinations.

[3] = biological target: LTK (Homo sapiens, UniProt P29376); assay: KINOMEscan competition binding; settings: read-out: %Inh LTK
[4] = biological target: ACVR2A (Homo sapiens, UniProt P27037); assay: KINOMEscan competition binding; settings: read-out: %Inh ACVR2A
[5] = biological target: T1, BMX (Homo sapiens, UniProt P51813); assay: KINOMEscan competition binding; settings: read-out: %Inh BMX
T1 sequence (P51813 1-675): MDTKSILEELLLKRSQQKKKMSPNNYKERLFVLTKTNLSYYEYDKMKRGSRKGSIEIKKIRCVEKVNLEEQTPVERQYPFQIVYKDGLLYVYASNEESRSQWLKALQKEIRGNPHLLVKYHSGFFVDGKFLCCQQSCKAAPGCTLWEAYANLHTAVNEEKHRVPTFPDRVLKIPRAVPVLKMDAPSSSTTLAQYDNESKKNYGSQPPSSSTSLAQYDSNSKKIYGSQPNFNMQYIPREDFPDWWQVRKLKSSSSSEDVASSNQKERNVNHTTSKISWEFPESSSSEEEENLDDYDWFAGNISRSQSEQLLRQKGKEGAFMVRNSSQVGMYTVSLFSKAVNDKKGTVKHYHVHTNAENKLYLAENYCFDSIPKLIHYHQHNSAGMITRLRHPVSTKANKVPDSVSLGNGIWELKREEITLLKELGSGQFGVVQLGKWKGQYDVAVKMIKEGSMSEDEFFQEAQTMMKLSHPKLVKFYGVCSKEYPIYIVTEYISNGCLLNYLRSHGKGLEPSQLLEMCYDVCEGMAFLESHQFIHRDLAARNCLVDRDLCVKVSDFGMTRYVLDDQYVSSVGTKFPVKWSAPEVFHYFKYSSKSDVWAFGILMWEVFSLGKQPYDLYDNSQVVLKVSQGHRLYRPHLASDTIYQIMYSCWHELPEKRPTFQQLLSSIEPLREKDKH

[6] = biological target: CDK3 (Homo sapiens, UniProt Q00526); assay: KINOMEscan competition binding; settings: read-out: %Inh CDK3
[7] = biological target: T2, LATS1 (Homo sapiens, UniProt O95835); assay: KINOMEscan competition binding; settings: read-out: %Inh LATS1
T2 sequence (O95835 1-1130): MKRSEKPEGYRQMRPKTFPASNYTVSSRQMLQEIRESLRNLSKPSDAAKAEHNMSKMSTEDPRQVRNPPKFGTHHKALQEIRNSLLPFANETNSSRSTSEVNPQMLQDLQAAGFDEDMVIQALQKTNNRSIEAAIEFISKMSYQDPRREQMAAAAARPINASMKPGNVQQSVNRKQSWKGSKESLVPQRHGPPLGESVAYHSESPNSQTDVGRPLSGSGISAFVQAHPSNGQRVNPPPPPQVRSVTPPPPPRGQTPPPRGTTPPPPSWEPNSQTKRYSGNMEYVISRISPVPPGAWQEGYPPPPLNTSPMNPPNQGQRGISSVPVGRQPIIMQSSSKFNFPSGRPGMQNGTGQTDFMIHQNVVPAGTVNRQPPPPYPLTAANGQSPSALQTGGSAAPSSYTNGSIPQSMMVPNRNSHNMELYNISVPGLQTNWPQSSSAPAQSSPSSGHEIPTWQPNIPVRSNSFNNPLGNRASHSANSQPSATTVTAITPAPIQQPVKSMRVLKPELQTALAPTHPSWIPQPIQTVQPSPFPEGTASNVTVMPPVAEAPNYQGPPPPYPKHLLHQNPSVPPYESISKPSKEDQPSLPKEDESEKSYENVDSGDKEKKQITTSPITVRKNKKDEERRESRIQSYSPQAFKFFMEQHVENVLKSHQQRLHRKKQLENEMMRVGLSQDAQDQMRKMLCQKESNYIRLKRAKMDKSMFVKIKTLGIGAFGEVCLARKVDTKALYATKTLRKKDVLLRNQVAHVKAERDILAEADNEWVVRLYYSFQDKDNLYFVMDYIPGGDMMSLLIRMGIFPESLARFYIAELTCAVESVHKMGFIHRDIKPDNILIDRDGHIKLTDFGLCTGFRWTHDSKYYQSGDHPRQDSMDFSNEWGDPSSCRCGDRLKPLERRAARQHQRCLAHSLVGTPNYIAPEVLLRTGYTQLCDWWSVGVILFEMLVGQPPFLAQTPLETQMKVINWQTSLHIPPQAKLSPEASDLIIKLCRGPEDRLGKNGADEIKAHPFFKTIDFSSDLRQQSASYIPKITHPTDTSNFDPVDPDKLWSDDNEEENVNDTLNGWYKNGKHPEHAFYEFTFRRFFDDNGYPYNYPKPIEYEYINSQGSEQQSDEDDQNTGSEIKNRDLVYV

[8] = biological target: CAMK1 (Homo sapiens, UniProt Q14012); assay: KINOMEscan competition binding; settings: read-out: %Inh CAMK1
[9] = biological target: ACVRL1 (Homo sapiens, UniProt P37023); assay: KINOMEscan competition binding; settings: read-out: %Inh ACVRL1
[10] = biological target: FGFR3 (Homo sapiens, UniProt P22607); assay: KINOMEscan competition binding; settings: read-out: %Inh FGFR3
[11] = biological target: GSK3A (Homo sapiens, UniProt P49840); assay: KINOMEscan competition binding; settings: read-out: %Inh GSK3A
[12] = biological target: ERK1 (Homo sapiens, UniProt P27361); assay: KINOMEscan competition binding; settings: read-out: %Inh ERK1
Chain of ERK1 (P27361 whole entry): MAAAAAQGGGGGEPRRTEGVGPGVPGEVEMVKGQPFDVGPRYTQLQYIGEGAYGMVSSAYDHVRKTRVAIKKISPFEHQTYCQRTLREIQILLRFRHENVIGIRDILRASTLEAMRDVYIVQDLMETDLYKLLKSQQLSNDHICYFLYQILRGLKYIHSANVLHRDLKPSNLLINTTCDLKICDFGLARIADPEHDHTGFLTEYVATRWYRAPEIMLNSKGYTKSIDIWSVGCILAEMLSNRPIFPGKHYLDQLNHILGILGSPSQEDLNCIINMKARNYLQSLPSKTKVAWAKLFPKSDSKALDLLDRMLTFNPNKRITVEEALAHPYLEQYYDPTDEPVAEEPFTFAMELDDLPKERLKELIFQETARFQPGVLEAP

Chain of CAMK1 (Q14012 whole entry): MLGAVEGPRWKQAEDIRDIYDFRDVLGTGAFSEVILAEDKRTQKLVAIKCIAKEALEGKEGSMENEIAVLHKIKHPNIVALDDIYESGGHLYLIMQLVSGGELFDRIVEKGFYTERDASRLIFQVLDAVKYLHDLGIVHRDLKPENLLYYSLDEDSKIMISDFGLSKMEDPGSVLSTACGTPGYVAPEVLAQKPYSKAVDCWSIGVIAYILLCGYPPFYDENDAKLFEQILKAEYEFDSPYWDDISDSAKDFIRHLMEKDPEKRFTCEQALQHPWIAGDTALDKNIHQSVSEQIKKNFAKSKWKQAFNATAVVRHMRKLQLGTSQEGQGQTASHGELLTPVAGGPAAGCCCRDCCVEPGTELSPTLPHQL
Chain of ACVRL1 (P37023 22-503): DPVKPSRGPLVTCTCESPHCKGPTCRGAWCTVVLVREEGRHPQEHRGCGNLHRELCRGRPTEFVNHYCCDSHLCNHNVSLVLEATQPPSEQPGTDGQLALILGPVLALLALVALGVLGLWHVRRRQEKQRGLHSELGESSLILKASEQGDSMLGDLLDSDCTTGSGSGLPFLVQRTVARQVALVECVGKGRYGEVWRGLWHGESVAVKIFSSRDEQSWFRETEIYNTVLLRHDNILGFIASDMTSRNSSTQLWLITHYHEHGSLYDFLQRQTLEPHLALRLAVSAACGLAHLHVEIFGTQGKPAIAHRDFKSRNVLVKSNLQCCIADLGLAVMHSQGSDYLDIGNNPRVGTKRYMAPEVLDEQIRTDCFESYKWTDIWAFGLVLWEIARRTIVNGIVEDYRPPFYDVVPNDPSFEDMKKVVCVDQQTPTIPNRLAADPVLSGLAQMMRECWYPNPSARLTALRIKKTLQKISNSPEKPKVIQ
Chain of GSK3A (P49840 whole entry): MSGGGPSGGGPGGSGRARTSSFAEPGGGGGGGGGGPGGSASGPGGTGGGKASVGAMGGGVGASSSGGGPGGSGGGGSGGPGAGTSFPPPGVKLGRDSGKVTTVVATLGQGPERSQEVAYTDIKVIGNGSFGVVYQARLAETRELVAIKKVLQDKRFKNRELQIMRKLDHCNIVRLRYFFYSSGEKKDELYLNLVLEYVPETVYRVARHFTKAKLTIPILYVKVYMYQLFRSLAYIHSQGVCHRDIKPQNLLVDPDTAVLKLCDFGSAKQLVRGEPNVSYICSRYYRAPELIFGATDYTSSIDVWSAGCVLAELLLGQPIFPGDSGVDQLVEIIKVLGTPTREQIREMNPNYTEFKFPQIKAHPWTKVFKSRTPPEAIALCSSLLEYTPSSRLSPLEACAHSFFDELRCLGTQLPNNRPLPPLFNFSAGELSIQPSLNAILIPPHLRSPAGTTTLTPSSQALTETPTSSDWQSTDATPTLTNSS
Chain of LTK (P29376 17-864): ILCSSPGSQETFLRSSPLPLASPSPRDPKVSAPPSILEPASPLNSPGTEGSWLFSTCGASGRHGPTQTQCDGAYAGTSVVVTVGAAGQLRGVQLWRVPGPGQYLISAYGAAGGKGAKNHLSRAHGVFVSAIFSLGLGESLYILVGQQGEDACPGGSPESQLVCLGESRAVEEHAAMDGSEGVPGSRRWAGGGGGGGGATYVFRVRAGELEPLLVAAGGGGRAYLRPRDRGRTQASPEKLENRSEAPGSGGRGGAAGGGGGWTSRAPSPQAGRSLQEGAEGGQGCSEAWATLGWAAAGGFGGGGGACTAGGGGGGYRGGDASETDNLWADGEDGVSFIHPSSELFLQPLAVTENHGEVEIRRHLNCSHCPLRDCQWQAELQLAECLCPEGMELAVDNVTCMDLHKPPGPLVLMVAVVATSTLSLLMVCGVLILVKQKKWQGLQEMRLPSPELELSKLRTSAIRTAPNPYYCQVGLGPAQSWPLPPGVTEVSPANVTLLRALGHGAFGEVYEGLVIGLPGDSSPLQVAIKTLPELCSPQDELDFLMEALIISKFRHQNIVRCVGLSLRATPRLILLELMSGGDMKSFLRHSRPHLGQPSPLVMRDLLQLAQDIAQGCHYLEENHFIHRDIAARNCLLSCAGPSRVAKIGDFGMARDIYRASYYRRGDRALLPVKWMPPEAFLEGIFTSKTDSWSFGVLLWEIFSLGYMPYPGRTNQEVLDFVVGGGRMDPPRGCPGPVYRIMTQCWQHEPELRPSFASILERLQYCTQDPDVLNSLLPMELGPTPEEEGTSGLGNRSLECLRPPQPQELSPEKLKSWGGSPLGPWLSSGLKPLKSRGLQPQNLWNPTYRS
Chain of ACVR2A (P27037 20-513): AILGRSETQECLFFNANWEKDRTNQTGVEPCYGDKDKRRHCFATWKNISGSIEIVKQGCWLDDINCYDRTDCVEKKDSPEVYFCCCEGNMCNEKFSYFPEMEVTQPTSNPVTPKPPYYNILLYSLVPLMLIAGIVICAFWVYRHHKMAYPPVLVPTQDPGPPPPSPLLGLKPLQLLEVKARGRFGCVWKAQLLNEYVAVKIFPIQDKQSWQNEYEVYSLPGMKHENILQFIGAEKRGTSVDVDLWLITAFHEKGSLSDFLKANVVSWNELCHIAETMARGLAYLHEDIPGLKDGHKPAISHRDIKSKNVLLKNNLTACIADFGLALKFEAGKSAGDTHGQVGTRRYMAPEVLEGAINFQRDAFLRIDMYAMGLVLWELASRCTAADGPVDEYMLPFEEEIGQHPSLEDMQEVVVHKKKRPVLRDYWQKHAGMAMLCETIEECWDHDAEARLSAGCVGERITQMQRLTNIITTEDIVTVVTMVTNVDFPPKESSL
Chain of CDK3 (Q00526 whole entry): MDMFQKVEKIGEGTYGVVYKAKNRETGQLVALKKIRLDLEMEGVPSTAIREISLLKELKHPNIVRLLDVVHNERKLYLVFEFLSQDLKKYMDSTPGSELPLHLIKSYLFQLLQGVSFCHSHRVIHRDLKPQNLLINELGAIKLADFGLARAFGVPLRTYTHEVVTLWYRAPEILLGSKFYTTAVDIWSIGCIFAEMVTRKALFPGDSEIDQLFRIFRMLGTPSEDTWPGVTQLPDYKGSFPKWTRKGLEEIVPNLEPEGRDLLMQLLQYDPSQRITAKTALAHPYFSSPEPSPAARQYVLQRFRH
Chain of AAK1 (Q2M2I8 whole entry): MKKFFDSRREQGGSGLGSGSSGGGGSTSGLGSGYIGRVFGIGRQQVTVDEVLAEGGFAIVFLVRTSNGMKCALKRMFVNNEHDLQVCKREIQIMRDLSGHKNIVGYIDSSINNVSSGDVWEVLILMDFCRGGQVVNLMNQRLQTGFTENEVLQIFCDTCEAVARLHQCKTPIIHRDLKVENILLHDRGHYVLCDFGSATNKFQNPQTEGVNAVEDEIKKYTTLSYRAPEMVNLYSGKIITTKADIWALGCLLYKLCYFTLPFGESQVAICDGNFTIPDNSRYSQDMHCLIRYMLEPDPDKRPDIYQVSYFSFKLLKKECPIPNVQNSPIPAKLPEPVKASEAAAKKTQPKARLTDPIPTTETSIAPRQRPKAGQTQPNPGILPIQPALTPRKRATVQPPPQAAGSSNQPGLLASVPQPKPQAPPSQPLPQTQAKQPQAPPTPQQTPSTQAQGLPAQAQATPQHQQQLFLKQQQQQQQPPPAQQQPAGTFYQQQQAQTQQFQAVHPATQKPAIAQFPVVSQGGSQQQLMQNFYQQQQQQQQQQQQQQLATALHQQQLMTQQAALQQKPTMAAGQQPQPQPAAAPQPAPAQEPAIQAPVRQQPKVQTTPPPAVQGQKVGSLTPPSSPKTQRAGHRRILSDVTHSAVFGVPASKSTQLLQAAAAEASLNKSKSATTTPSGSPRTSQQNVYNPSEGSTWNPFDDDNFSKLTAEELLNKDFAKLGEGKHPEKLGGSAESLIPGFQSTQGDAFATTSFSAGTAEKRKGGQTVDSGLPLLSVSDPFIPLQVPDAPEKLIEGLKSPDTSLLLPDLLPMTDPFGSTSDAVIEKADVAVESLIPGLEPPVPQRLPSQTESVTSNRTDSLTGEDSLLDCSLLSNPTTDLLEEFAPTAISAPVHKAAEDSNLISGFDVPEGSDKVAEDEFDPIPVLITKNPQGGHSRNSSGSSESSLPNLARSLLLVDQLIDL

| SMILES | inhibition at 1 µM [1] | >70 (number of kinases with %Inh >70) [2] | >80 (number of kinases with %Inh >80) [2] | >90 (number of kinases with %Inh >90) [2] | inhibition at 1 µM [3] | inhibition at 1 µM [4] | inhibition at 1 µM [5] | inhibition at 1 µM [6] | inhibition at 1 µM [7] | inhibition at 1 µM [8] | inhibition at 1 µM [9] | inhibition at 1 µM [10] | inhibition at 1 µM [11] | inhibition at 1 µM [12] |
| --- | --- | --- | --- | --- | --- | --- | --- | --- | --- | --- | --- | --- | --- | --- |
| Cn1cc(-c2cnc(N)c3c(-c4ccc5c(c4)CCN5C(=O)Cc4ccccc4)csc23)cn1 [UNC10225012A] | 0% | 42 | 36 | 27 | 0% | 0% | 57% | 1% | 1% | 0% | 0% | 49% | 5% | 0% |
| CS(=O)(=O)Cc1ccc(Nc2nccc(-c3c(-c4cccc(NC(=O)C5CCCCC5)c4)nn4ncccc34)n2)cc1 [UNC10225159A] | 0% | 12 | 10 | 5 | 0% | 0% | 37% | 0% | 0% | 0% | 0% | 16% | 0% | 2% |
| Cc1ccc(NC(=O)Nc2cccc(C(F)(F)F)c2)cc1 [UNC10225187A] | 26% | 4 | 4 | 3 | 0% | 2% | 0% | 0% | 0% | 7% | 0% | 5% | 0% | 0% |
| COc1cccc(OC)c1C(=O)Nc1cccc(-c2nn3ccccc3c2-c2ccnc(Nc3cccc(F)c3)n2)c1 [UNC10225310A] | 0% | 19 | 19 | 12 | 13% | 7% | 21% | 0% | 6% | 19% | 7% | 0% | 24% | 1% |
| O=c1cc(N2CCOCC2)nc2n(Cc3cccc(Cl)c3Cl)c(C3CC3)nn12 [UNC10225469A] | 14% | 3 | 3 | 2 | 0% | 0% | 19% | 5% | 0% | 0% | 9% | 0% | 4% | 0% |
